Results on 20 compounds are retold here after patent US9822131B2, “Certain chemical entities, compositions and methods” (Intellikine LLC, priority 2008, dated 2017).

Each structure is given as a SMILES string.

In series [1] the test system is adjuvant induced arthritis model. The series can be described thus: Adjuvant induced arthritis assay. The format is in vivo. On the procedure: Isoflurane-anesthetized Lewis rats (200-250 g) were implanted with an intrathecal (IT) catheter. After a 6 d recovery period, all animals except those that appeared to have sensory or motor abnormalities (fewer than 5% of the total number) were used for experiments. For IT administration, 10 μl of drug or saline followed by 10 μl of isotonic saline was injected through the catheter.
Lewis rats were immunized at the base of the tail with 0.1 ml of complete Freund's adjuvant (CFA) on day 0 several days after catheter implantation (n=6/group). Drug (e.g. one or more compounds of the present invention or vehicle) treatment was generally started on day 8 and continued daily until day 20. Clinical signs of arthritis generally begin on day 10, and paw swelling was determined every second day by water displacement plethysmometry.

Series [2] has as its system collagen induced developing arthritis model. Put plainly: Rat developing type II collagen induced arthritis assay. The format is in vivo. Here is the method:
In order to study the effects of the compounds of the present invention on the autoimmune disease arthritis, a collagen induced developing arthritis model was used. Female Lewis rats were given collagen injections at day 0. Bovine type II collagen was prepared as a 4 mg/ml solution in 0.01N acetic acid. Equal volumes of collagen and Freund's incomplete adjuvant were emulsified by hand mixing until a bead of the emulsified material held its form in water. Each rodent received a 300 μl injection of the mixture at each injection time spread over three subcutaneous sites on the back.
Oral compound administration began on day 0 and continued through day 16 with vehicle (5% NMP, 85% PEG 400, 10% Solutol) or compounds of the present invention in vehicle or control (e.g. methotrexate) at 12 hour intervals daily. Rats were weighed on days 0, 3, 6, 9-17 and caliper measurements of ankles taken on days 9-17. Final body weights were taken, and then the animals were euthanized on day 17. After euthanization, blood was drawn and hind paws and knees were removed. Blood was further processed for pharmacokinetics experiments as well as an anti-type II collagen antibody ELISA assay. Hind paws were weighed and then with the knees preserved in 10% formalin. The paws and knees were subsequently processed for microcopy. Livers, spleen and thymus were also weighed. Sciatic nerves were prepared for histopathology.
Knee and ankle joints were fixed for 1-2 days and decalcified for 4-5 days. Ankle joints were cut in half longitudinally, knees were cut in half along the frontal plane. Joints were then processed, embedded, sectioned and stained with toluidine blue. Scoring of the joints was done according to the following criteria:
Percent inhibition of paw weight and AUC was calculated using the following formula: % Inhibition=A−B/A×100 A=Mean Disease Control−Mean Normal B=Mean Treated−Mean Normal

The test system of series [3] is established type II collagen induced arthritis. Put plainly: Rat established type II collagen induced arthritis assay. The format is in vivo. The following applies: oral. Here is the method: In order to examine the dose responsive efficacy of the compounds of the present invention in inhibiting the inflammation, cartilage destruction and bone resorption of 7 day established type II collagen induced arthritis in rats, compounds were administered orally daily or twice daily for 6 days.
Female Lewis rats were anesthetized and given collagen injections prepared and administered as described previously on day 0. On day 6, animals were anesthetized and given a second collagen injection. Caliper measurements of normal (pre-disease) right and left ankle joints were performed on day 9. On days 10-11, arthritis typically occurred and rats were randomized into treatment groups. Randomization was performed after ankle joint swelling was obviously established and there was good evidence of bilateral disease.
After an animal was selected for enrollment in the study, treatment was initiated by the oral route. Animals were given vehicle, control (Enbrel) or compound doses, twice daily or once daily (BID or QD respectively). Dosing was administered on days 1-6 using a volume of 2.5 ml/kg (BID) or 5 ml/kg (QD) for oral solutions. Rats were weighed on days 1-7 following establishment of arthritis and caliper measurements of ankles taken every day. Final body weights were taken on day 7 and animals were euthanized.

In series [4] the target is T1, PI3K δ (Homo sapiens, UniProt O00329).
T1 construct: purchased Upstate
T1 sequence (O00329 whole entry): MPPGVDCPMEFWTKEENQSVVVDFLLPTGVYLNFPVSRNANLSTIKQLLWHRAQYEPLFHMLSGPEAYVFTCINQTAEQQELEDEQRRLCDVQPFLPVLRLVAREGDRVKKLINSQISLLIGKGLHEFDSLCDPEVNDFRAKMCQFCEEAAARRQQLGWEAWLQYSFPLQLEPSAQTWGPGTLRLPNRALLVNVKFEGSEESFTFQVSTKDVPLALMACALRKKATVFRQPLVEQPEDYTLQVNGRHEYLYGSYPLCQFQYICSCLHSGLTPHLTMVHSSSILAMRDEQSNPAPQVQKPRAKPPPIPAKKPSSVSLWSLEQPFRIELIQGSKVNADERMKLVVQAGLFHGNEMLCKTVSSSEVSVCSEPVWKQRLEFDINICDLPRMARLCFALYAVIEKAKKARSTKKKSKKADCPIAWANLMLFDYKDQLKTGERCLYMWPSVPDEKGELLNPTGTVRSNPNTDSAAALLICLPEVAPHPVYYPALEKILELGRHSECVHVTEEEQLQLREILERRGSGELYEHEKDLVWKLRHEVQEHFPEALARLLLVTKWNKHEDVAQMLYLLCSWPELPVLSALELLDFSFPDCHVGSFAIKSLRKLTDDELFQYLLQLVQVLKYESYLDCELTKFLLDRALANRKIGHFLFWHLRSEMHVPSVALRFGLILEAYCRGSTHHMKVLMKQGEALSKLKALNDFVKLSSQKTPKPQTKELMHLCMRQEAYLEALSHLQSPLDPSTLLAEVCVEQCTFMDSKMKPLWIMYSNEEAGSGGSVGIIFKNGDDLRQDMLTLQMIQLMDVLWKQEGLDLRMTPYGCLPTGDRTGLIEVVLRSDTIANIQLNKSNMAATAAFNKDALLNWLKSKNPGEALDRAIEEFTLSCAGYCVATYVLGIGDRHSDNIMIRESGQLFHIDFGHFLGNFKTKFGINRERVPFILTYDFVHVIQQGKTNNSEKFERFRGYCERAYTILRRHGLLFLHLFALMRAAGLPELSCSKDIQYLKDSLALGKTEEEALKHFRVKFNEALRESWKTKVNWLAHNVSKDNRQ
T1 sequence (P27986 whole entry partner): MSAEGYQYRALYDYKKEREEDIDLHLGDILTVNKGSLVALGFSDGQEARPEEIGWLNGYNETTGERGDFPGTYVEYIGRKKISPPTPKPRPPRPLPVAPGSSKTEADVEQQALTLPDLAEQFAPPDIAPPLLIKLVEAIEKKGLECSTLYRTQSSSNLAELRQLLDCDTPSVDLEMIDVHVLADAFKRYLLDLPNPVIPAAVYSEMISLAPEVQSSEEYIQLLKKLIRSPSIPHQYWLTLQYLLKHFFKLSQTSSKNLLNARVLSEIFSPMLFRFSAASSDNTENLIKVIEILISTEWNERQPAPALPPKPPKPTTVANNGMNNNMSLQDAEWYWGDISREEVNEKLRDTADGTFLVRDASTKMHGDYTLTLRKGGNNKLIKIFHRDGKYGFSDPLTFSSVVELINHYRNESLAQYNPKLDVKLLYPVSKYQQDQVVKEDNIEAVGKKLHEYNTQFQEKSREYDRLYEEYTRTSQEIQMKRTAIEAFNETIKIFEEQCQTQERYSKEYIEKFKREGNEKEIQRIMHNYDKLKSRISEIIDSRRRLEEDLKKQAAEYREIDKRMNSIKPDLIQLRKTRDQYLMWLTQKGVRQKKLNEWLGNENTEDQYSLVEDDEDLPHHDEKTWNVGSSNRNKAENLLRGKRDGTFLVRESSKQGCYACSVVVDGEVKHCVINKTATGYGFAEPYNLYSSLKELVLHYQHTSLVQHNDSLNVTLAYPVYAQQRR
Put plainly: PI3K δ in vitro kinase inhibition assay. The format is biochemical.
Experimental: (§1) IC50 values are measured using either a standard TLC assay for lipid kinase activity (described below) or a high-throughput membrane capture assay. Kinase reactions are performed by preparing a reaction mixture containing kinase, inhibitor (2% DMSO final concentration), buffer (25 mM HEPES, pH 7.4, 10 mM MgCl2), and freshly sonicated phosphatidylinositol (100 μg/ml). Reactions are initiated by the addition of ATP containing 10 μCi of γ-32P-ATP to a final concentration 10 or 100 μM and allowed to proceed for 5 minutes at room temperature. For TLC analysis, reactions are then terminated by the addition of 105 μl 1N HCl followed by 160 μl CHCl3:MeOH (1:1). The biphasic mixture is vortexed, briefly centrifuged, and the organic phase is transferred to a new tube using a gel loading pipette tip precoated with CHCl3. This extract is spotted on TLC plates and developed for 3-4 hours in a 65:35 solution of n-propanol:1M acetic acid. The TLC plates are then dried, exposed to a phosphorimager screen (Storm, Amersham), and quantitated.
(§2) Briefly, the assay is a time resolved FRET assay that indirectly measures PIP3 product formed by the activity of a PI3-K. The kinase reaction is performed in a microtiter plate (e.g., a 384 well microtiter plate). The total reaction volume is approximately 20 ul per well. In the first step, each well receives 2 ul of test compound in 20% dimethylsulphoxide resulting in a 2% DMSO final concentration. Next, approximately 14.5 ul of a kinase/PIP2 mixture (diluted in 1× reaction buffer) is added per well for a final concentration of 0.25-0.3 ug/ml kinase and 10 uM PIP2. […] To start the reaction, 3.5 ul of ATP (diluted in 1× reaction buffer) is added per well for a final concentration of 10 uM ATP. The plate is sealed and incubated for 1 hour at room temperature. The reaction is stopped by adding 5 ul of Stop Solution per well and then 5 μl of Detection Mix is added per well. The plate is sealed, incubated for 1 hour at room temperature, and then read on an appropriate plate reader. Data is analyzed and IC50s are generated using GraphPad Prism 5.

The target in series [5] is T2, PI3K γ (Homo sapiens, UniProt P48736).
T2 construct: purchased Sigma
T2 sequence (P48736 whole entry): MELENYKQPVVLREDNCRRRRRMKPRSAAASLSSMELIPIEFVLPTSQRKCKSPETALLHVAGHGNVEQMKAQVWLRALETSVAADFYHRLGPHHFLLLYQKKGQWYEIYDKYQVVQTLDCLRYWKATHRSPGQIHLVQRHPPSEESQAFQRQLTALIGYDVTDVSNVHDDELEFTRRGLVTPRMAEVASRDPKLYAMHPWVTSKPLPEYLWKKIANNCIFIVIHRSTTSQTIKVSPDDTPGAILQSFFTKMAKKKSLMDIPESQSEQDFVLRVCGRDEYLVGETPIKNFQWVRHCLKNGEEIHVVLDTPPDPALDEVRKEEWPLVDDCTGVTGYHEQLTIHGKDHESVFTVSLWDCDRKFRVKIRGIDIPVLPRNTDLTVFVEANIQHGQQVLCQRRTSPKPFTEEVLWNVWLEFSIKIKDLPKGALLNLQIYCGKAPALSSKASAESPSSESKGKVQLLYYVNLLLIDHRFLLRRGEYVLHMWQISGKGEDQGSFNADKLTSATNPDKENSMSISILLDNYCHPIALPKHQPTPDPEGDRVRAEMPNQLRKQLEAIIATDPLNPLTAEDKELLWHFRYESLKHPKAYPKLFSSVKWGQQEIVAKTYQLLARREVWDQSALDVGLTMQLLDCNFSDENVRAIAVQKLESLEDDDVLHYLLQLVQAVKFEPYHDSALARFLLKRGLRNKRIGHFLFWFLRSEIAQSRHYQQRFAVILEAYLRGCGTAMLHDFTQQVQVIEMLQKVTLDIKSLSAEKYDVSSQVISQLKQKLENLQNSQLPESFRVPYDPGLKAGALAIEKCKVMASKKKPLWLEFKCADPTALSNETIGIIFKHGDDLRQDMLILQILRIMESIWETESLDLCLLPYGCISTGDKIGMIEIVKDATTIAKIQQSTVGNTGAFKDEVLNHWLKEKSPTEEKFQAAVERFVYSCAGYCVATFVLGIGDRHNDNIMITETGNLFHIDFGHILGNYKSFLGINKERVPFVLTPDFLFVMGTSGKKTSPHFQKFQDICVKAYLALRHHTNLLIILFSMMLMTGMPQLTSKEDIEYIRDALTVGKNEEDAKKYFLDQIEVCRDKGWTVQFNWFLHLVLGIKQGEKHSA
Put plainly: PI3K γ in vitro kinase inhibition assay. The format is biochemical.
Experimental: as §1, §2

For series [6], the system named is Balb/c splenic B cells. The series can be described thus: B cell activation and proliferation assay (Alamar Blue). The format is cell-based. The following applies: Mus musculus, read-out: B cell proliferation EC50.
For series [7], the target named is T3, PI3K α (Homo sapiens, UniProt P42336).
T3 construct: purchased Upstate
T3 sequence (P42336 whole entry): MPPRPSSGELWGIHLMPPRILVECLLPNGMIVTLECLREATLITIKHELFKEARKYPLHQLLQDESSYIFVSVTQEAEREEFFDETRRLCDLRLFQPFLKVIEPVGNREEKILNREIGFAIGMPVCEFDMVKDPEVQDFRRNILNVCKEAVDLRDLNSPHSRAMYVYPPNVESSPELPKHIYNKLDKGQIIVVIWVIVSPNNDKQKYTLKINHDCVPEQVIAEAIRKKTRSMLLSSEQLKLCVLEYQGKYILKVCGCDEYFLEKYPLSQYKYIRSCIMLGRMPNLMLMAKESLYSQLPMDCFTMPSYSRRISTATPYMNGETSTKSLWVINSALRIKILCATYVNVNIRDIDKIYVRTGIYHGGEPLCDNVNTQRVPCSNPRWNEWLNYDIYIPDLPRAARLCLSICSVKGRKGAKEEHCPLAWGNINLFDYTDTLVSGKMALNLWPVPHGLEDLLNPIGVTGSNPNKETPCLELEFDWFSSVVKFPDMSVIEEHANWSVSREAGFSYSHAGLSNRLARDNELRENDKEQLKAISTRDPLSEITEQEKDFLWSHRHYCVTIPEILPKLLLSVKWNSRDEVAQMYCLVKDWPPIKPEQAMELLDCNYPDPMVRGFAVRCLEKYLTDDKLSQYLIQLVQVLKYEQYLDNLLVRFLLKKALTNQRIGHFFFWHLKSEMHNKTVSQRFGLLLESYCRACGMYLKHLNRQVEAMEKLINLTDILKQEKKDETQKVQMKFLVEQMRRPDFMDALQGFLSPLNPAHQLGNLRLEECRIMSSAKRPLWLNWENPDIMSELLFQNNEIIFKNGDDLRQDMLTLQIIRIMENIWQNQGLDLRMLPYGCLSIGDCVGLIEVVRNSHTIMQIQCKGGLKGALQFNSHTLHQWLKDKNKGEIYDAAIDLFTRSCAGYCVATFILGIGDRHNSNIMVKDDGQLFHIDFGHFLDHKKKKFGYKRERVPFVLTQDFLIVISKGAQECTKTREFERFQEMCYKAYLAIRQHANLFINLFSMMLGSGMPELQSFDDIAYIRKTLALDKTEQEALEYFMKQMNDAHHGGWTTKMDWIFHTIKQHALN
T3 sequence (P27986 whole entry partner): as the sequence (P27986 whole entry partner) above
The series can be described thus: PI3K α in vitro kinase inhibition assay. The format is biochemical.
Experimental: as §1, §2

Series [8] addresses T4, PI3K β (Homo sapiens, UniProt P42338).
T4 construct: purchased Upstate
Put plainly: PI3K β in vitro kinase inhibition assay. It counts as biochemical.
Experimental: as §1, §2

T4 sequence (P42338 whole entry): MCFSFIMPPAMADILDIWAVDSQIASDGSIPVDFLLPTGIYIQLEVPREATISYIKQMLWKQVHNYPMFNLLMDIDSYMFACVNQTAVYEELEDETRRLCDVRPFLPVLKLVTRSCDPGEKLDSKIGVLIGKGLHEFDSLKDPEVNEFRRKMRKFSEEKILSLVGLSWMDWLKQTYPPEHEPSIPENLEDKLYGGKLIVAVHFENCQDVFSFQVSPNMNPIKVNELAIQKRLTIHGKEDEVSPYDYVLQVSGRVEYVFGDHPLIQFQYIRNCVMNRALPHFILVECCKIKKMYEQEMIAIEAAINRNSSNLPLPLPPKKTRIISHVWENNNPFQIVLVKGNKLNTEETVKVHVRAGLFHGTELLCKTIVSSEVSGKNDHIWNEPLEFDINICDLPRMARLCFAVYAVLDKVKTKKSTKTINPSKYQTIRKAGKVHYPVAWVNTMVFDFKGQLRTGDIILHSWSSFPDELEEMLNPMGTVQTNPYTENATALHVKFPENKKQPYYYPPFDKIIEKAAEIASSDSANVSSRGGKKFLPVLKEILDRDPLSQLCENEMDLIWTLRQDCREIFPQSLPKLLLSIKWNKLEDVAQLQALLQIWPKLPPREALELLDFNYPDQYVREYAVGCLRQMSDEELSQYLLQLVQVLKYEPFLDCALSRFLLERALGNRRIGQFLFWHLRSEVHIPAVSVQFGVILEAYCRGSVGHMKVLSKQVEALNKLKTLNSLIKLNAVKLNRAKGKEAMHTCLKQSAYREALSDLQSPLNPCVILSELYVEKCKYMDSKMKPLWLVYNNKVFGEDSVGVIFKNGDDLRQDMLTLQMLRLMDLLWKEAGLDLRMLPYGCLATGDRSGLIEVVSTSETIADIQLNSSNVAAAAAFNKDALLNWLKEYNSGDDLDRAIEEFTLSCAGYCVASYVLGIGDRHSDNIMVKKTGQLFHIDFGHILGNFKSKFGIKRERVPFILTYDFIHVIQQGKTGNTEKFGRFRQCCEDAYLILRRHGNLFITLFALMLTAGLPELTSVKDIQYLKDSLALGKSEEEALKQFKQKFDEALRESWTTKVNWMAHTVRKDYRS
T4 sequence (P27986 whole entry partner): as the sequence (P27986 whole entry partner) above

Consider `CC(=O)Nc1nc2ccc(-c3nn(Cc4cc5cccc(C)c5c(=O)n4-c4ccccc4C)c4ncnc(N)c34)cc2s1` [#53], for which the “average paw volume increase” value in series [1] (FIG. 10) is recorded as “dose dependent reduction”. In addition, the “toxicity or other adverse reaction as measured by weight loss” value in series [1] (FIG. 11, average weight over time) was “does not exhibit toxicity or other adverse reaction”. Moreover, the “ankle histopathology, all categories” value in series [2] (60 mg/kg, FIG. 4) was “statistically significant reduction in all categories”. The “serum anti-type II collagen levels” value in series [2] (10, 20, and 60 mg/kg dosage levels, FIG. 6) is recorded as “significant reduction”. In addition, the “arthritis induced ankle diameter increase over time” value in series [2] (10, 30, and 60 mg/kg at 12 hour intervals, oral, relative to vehicle or methotrexate control) is recorded as “significant reduction”. Further, the knee histopathology result in series [2] (FIG. 5) is “dose dependent reduction”. In series [2] (oral, 12 hour intervals, FIG. 4), the “ankle histopathology (inflammation, pannus, cartilage damage, bone resorption)” value is on record as “significant reduction in one or more categories”. Besides, the “mean ankle diameter increase over time” value in series [3] (once daily dosage, FIG. 8) is reported as “significant reduction”; in series [3] (twice daily dosage, FIG. 9), “significant reduction”.

Turning to `Cc1csc2nc(Cn3nc(I)c4c(N)ncnc43)n(-c3ccccc3C(C)C)c(=O)c12` [Compound 284], the IC50 in series [4] was less than 0.1 µM; in series [5] it was less than 0.1 µM; in series [7], more than 10 µM; in series [8], less than 10 µM. The EC50 in series [6] is less than 0.1 µM.

As to `Cc1csc2nc(Cn3nc(-c4cc(O)cc(F)c4)c4c(N)ncnc43)n(-c3ccccc3Cl)c(=O)c12` [Compound 296], the IC50 was less than 0.1 µM in series [4], more than 10 µM in series [5], less than 10 µM in series [7] and less than 1 µM in series [8]. Moreover, the EC50 in series [6] was less than 0.1 µM.

Consider `CCc1ccccc1-n1c(Cn2nc(-c3cc(O)cc(F)c3)c3c(N)ncnc32)nc2scc(C)c2c1=O` [Compound 292], for which the IC50 in series [4] is less than 0.1 µM; in series [5], less than 0.1 µM; in series [7], more than 10 µM; in series [8], less than 1 µM. For the same compound, the EC50 in series [6] is less than 0.1 µM.

Consider `Cc1ccccc1N1C(=O)C2C(C=NN2C)N=C1Cn1nc(-c2cc(O)cc(F)c2)c2c(N)ncnc21` (centres unmarked) [Compound 221], for which the IC50 is less than 0.1 µM in series [4], more than 10 µM in series [5], more than 10 µM in series [7] and more than 10 µM in series [8]. Besides, the EC50 in series [6] is less than 1 µM.

For `Cc1ccnc2cc(Cn3nc(-c4cc(O)cc(F)c4)c4c(N)ncnc43)n(-c3ccccc3F)c(=O)c12` [Compound 231], the IC50 in series [4] was less than 0.1 µM; in series [5], less than 1 µM; in series [7] it was more than 10 µM; in series [8], more than 10 µM. The EC50 in series [6] was less than 0.1 µM.

As to `Cc1ccccc1-n1c(Cn2nc(Br)c3c(N)ncnc32)nc2scc(C)c2c1=O` [Compound 250], the IC50 was less than 0.1 µM in series [4], less than 1 µM in series [5], more than 10 µM in series [7] and more than 10 µM in series [8]. Besides, the EC50 in series [6] is less than 0.1 µM.

Turning to `Cc1csc2nc(Cn3nc(C#C[C@@H](C)O)c4c(N)ncnc43)n(-c3ccccc3F)c(=O)c12` [Compound 261], the IC50 was less than 0.1 µM in series [4], less than 0.1 µM in series [5], more than 10 µM in series [7] and more than 10 µM in series [8]. Also, the EC50 in series [6] is less than 1 µM.

With `Cc1ccccc1-n1c(Cn2nc(Cl)c3c(N)ncnc32)nc2nccc(C)c2c1=O` [Compound 203], the 50% inhibitory concentration (IC50) is less than 0.1 µM in series [4], less than 10 µM in series [5], more than 10 µM in series [7] and more than 10 µM in series [8]. The EC50 in series [6] was less than 1 µM.

`Cc1ccccc1-n1c(Cn2nc(Br)c3c(N)ncnc32)nc2nccc(C)c2c1=O` [Compound 204]: the IC50 in series [4] was less than 0.1 µM; in series [5] it was more than 10 µM; in series [7] it was more than 10 µM; in series [8], more than 10 µM. For the same compound, the EC50 in series [6] is less than 1 µM.

Regarding `Cc1csc2nc(Cn3nc(-c4ccc(O)cc4)c4c(N)ncnc43)n(-c3ccccc3F)c(=O)c12` [Compound 263], the IC50 in series [4] is less than 10 µM; in series [5], less than 10 µM; in series [7] it was more than 10 µM; in series [8], more than 10 µM. Also, in series [6], the EC50 is less than 10 µM.

As for `Cc1csc2nc(Cn3nc(-c4ccc(F)c(O)c4)c4c(N)ncnc43)n(-c3ccccc3F)c(=O)c12` [Compound 259], the IC50 is less than 0.1 µM in series [4], less than 1 µM in series [5], more than 10 µM in series [7] and more than 10 µM in series [8]. Also, the EC50 in series [6] was less than 0.1 µM.

On to `Cc1ccccc1-n1c(Cn2nc(I)c3c(N)ncnc32)nc2nccc(C)c2c1=O` [Compound 199], for which the IC50 in series [4] was less than 1 µM; in series [5], less than 10 µM; in series [7] it was more than 10 µM; in series [8] it was more than 10 µM. Further, in series [6], the EC50 is less than 0.1 µM.

As for `Cc1csc2nc(Cn3nc(Br)c4c(N)ncnc43)n(-c3ccccc3Cl)c(=O)c12` [Compound 286], the IC50 in series [4] is less than 0.1 µM; in series [5], less than 1 µM; in series [7], more than 10 µM; in series [8] it was less than 10 µM. The EC50 in series [6] is less than 0.1 µM.

With `Cc1ccccc1-n1c(Cn2nc(-c3cccc(O)c3)c3c(N)ncnc32)nc2c(C)nn(C)c2c1=O` [Compound 217], the IC50 is less than 10 µM in series [4], more than 10 µM in series [5], more than 10 µM in series [7] and more than 10 µM in series [8]. Moreover, the EC50 in series [6] is less than 10 µM.

On to `Cc1csc2nc(Cn3nc(-c4cccc(O)c4)c4c(N)ncnc43)n(-c3ccccc3C(F)(F)F)c(=O)c12` [Compound 281], for which the half-maximal inhibitory concentration (IC50) is less than 0.1 µM in series [4], less than 0.1 µM in series [5], more than 10 µM in series [7] and less than 10 µM in series [8]. For the same compound, the EC50 in series [6] is less than 0.1 µM.

On to `Cc1ccccc1-n1c(Cn2nc(Cl)c3c(N)ncnc32)nc2scc(C)c2c1=O` [Compound 249], for which the IC50 in series [4] is less than 0.1 µM; in series [5], less than 1 µM; in series [7], more than 10 µM; in series [8], more than 10 µM. Further, the EC50 in series [6] is less than 0.1 µM.

Consider `COc1ccccc1-n1c(Cn2nc(-c3cccc(O)c3)c3c(N)ncnc32)nc2scc(C)c2c1=O` [Compound 275], for which the IC50 in series [4] is less than 0.1 µM; in series [5] it was less than 1 µM; in series [7], more than 10 µM; in series [8] it was less than 10 µM. Besides, in series [6], the EC50 is less than 0.1 µM.

For the compound `Cc1ccccc1-n1c(Cn2nc(I)c3c(N)ncnc32)nc2scc(C)c2c1=O` [Compound 242], the concentration for half-maximal inhibition (IC50) in series [4] is less than 0.1 µM; in series [5], less than 1 µM; in series [7], more than 10 µM; in series [8], more than 10 µM. For the same compound, in series [6], the EC50 was less than 0.1 µM.

In the case of `CCc1ccccc1-n1c(Cn2nc(-c3cccc(O)c3)c3c(N)ncnc32)nc2scc(C)c2c1=O` [Compound 290], the IC50 in series [4] was less than 0.1 µM; in series [5] it was less than 0.1 µM; in series [7], more than 10 µM; in series [8] it was less than 10 µM. Besides, the EC50 in series [6] was less than 0.1 µM.
